Data set [1] is described as follows: Multicomponent nitrilium-trapping macrocyclisation: Pro NH + EtCHO (1.5 equiv), Pinc2 (ethyl 2-isocyano-2-(triphenylphosphanylidene)acetate, 1.5 equiv), AcOH (0.1 equiv); carboxylate traps the nitrilium, then Wittig to the oxazole (18 h). Conditions: the molecule shown is the open-chain precursor, 1:1 DCE/MeCN, 25.0 mM, 50.0 °C, 12 steps.
Data set [2] can be described thus: Multicomponent nitrilium-trapping macrocyclisation: Pro NH + EtCHO (1.5 equiv) gives an iminium, Pinc (N-isocyanoimino)triphenylphosphorane (1.2 equiv) adds, C-terminal benzoate traps the nitrilium, then aza-Wittig to the 1,3,4-oxadiazole (18 h). To be noted: the molecule shown is the open-chain precursor, 1:1 DCE/MeCN, 25.0 mM, 50.0 °C, 12 steps.

`Cc1cccc(NC(=O)CNC(=O)[C@H](CC(C)C)NC(=O)[C@H](C)NC(=O)CNC(=O)[C@@H]2CCCN2)c1C(=O)O` [H-Pro-Gly-Ala-Leu-Gly-(2-amino-6-methylbenzoic acid)-OH]: the ring closure, overall yield was 0% in data set [1] (22-membered ring, 18.0 h) and 18% in data set [2] (22-membered ring).
On the same counts, the results for `CC(C)C[C@H](NC(=O)[C@H](C)NC(=O)CNC(=O)[C@@H]1CCCN1)C(=O)NCC(=O)Nc1ccccc1C(=O)O` [H-Pro-Gly-Ala-Leu-Gly-(2-aminobenzoic acid)-OH] are 0% and 15%.
Turning to `Cc1c(NC(=O)CNC(=O)[C@H](CC(C)C)NC(=O)[C@H](C)NC(=O)CNC(=O)[C@@H]2CCCN2)cccc1C(=O)O` [H-Pro-Gly-Ala-Leu-Gly-(3-amino-2-methylbenzoic acid)-OH], the ring closure, overall yield in data set [1] (23-membered ring, 18.0 h) was 23%; in data set [2] (23-membered ring) it was 25%.
As to `CC(C)C[C@H](NC(=O)[C@H](C)NC(=O)CNC(=O)[C@@H]1CCCN1)C(=O)NCC(=O)Nc1cccc(C(=O)O)c1` [H-Pro-Gly-Ala-Leu-Gly-(3-aminobenzoic acid)-OH], the ring closure, overall yield in data set [1] (23-membered ring, 18.0 h) worked out at 35%; in data set [2] (23-membered ring), 38%.
Regarding `CC(C)C[C@H](NC(=O)[C@H](C)NC(=O)CNC(=O)[C@@H]1CCCN1)C(=O)NCC(=O)Nc1ccc(C(=O)O)c(Cl)c1` [H-Pro-Gly-Ala-Leu-Gly-(4-amino-2-chlorobenzoic acid)-OH], the ring closure, overall yield in data set [1] (24-membered ring) came to 0%; in data set [2] (24-membered ring), 17%.
On the same counts, the results for `CC(C)C[C@H](NC(=O)[C@H](C)NC(=O)CNC(=O)[C@@H]1CCCN1)C(=O)NCC(=O)Nc1ccc(C(=O)O)cc1` [H-Pro-Gly-Ala-Leu-Gly-(4-aminobenzoic acid)-OH] are 0% and 18%.
Consider `CC(C)C[C@H](NC(=O)CNC(=O)[C@@H]1CCCN1)C(=O)N[C@@H](CC(=O)OC(C)(C)C)C(=O)N[C@H](C(=O)Nc1cccc(C(=O)O)c1)[C@@H](C)OC(C)(C)C` [H-Pro-Gly-Leu-Asp(OtBu)-Thr(OtBu)-(3-aminobenzoic acid)-OH], for which the ring closure, overall yield in data set [1] (23-membered ring, 18.0 h) was determined as 21%; in data set [2] (23-membered ring), 27%.

For the origin of these results see paper PMC10498670.
